For one experiment, the system named is MSSA ATCC12600. In words: MIC, broth microdilution (Example 2, Table 6). Format: cell-based, Staphylococcus aureus.
The subject of experiment [1] is Enterobacter aerogenes ATCC13048. The experiment can be described thus: Antibacterial spectrum MIC (Table 7). Format: cell-based. Here is the method:
(§1) Methicillin-susceptible Staphylococcus aureus (MSSA) NCTC8325 and methicillin-resistant Staphylococcus aureus (MRSA) ATCC43300 were used as bacteria. The bacteria of each type were cultured using Mueller-Hinton Broth (MH-broth, Difco) as a medium. Then, the minimum inhibitory concentration (MIC) of each of the EGCG derivatives was measured by a broth microdilution method in accordance with the Clinical and Laboratory Standards Institute (CLSI) guidelines (hereinafter the same).
(§2) First, each of the EGCG derivatives was dissolved in 100% dimethyl sulfoxide (DMSO, Wako Pure Chemical Industries, Ltd.) so that the concentration thereof became 5120 μg/ml. The resultant solution was diluted with DMSO or sterile distilled water so as to prepare two-fold dilution series of antibacterial agent solutions. […] Each of these antibacterial agent solutions was dispensed to wells of a 96-well plate. The concentration of the EGCG derivative in the antibacterial agent solution dispensed to the wells was set to be 10 times as high as the final concentration. On the other hand, the bacteria were cultured in the MH-broth at 37° C. overnight, and the thus-obtained pre-culture solution was diluted with a new MH-broth so that the concentration thereof in the MH-broth became 10^−4 (10^4-fold dilution), thus preparing a bacterial culture solution of about 1×10^5 CFU/ml (CFU: Colony Forming Unit, the number of viable cells). The bacterial culture solution was further added to each well, and the mixture was cultured at 37° C. for 18 hours. The ratio (volume ratio) between the antibacterial agent solution and the bacterial culture solution added to each well was set to 1:9 (the antibacterial agent solution:the bacterial culture solution), and the volume of the mixture of them per well was set to 100 μl in total. The final concentration of the EGCG derivative in the mixture was set to 8 μg/ml to 512 μg/ml, and the number of viable cells in the mixture was set to about 1×10^5 CFU/ml. Then, after the completion of the culture, the MIC was determined. Also, the turbidity (OD600 nm) was measured using a plate reader so as to identify minor differences.
(§3) Regarding the respective type strains shown in Tables 7 and 8 below, the MIC measurement was performed using the antibacterial agent solutions of Example 2 in the same manner as described in Section (2) of Example 1, except for the following. The antibacterial agent solutions were prepared by dissolving the EGCG derivatives of Example 2 in 100% DMSO and then diluting the resultant mixtures with sterile distilled water. The respective strains were derived from ATCC or NCTC. As Moraxella catarrhalis and Aspergillus fumigatus, clinical isolates thereof without an acquired resistance mechanism were used. For nutrient-rich bacteria, namely, Streptococcus pneumoniae ATCC49619, Streptococcus pyogenes ATCC19615, Streptococcus agalactiae ATCC13813, Moraxella catarrhalis, and Haemophilis influenzae ATCC49766, Strepto Haemo supplement (Eiken Chemical Co., Ltd.) was added to media for culturing them. The MIC measurement with respect to fungi was carried out by a broth microdilution method using a RPMI1640/MOPS (pH 7.0) medium in accordance with CLSI guidelines. About 2×10^3 cells/ml of fungi were inoculated to the medium. After the culture at 35° C. for 24 to 48 hours, the MIC was determined. Also, regarding the antibacterial agent solution of Comparative Example 2, the MIC was measured in the same manner.

Experiment [2] deals with Enterobacter cloacae ATCC13047. In words: Antibacterial spectrum MIC (Table 7). Format: cell-based. Here is the method:
as §1, §2, §3

Experiment [3] has as its system Staphylococcus aureus ATCC43300 (MRSA). The experiment can be described thus: Antibacterial spectrum MIC (Table 7). The class given is cell-based. On the procedure: as §1, §2, §3
Experiment [4] relates to Neisseria gonorrhoeae ATCC49226. The experiment can be described thus: Antibacterial spectrum MIC (Table 7). Format: cell-based. Here is the method:
as §1, §2, §3

A further experiment deals with Moraxella catarrhalis. In words: Antibacterial spectrum MIC (Table 7). As to conditions: Moraxella catarrhalis clinical isolate, Strepto Haemo supplement. The class given is cell-based. Here is the method:
as §1, §2, §3

The subject of experiment [5] is Klebsiella oxytoca ATCC8724. In words: Antibacterial spectrum MIC (Table 7). The class given is cell-based. On the procedure: as §1, §2, §3
The test system of experiment [6] is Bacillus subtilus ATCC6051. In words: Antibacterial spectrum MIC (Table 7). The class given is cell-based. Here is the method: as §1, §2, §3
Experiment [7] concerns Enterococcus faecalis ATCC29212. In words: Antibacterial spectrum MIC (Table 7). Format: cell-based. On the procedure:
as §1, §2, §3

Experiment [8] concerns Streptococcus pneumoniae ATCC49619. The experiment can be described thus: Antibacterial spectrum MIC (Table 7). The class given is cell-based. As to conditions: Strepto Haemo supplement. Here is the method:
as §1, §2, §3

Experiment [9] has as its system Serratia marcescens ATCC13880. The experiment can be described thus: Antibacterial spectrum MIC (Table 7). Format: cell-based. On the procedure:
as §1, §2, §3

Experiment [10] deals with Staphylococcus epidermis ATCC14990. The experiment can be described thus: Antibacterial spectrum MIC (Table 7). As to conditions: for MIC: Staphylococcus epidermis ATCC14990. Format: cell-based. On the procedure:
as §1, §2, §3

Experiment [11] deals with Haemophilis influenzae ATCC49766. The experiment can be described thus: Antibacterial spectrum MIC (Table 7). The class given is cell-based. Conditions: Strepto Haemo supplement. On the procedure: as §1, §2, §3
The test system of experiment [12] is Streptococcus agalactiae ATCC13813. The experiment can be described thus: Antibacterial spectrum MIC (Table 7). The class given is cell-based. Conditions: Strepto Haemo supplement. On the procedure:
as §1, §2, §3

The subject of experiment [13] is Streptococcus pyogenes ATCC19615. The experiment can be described thus: Antibacterial spectrum MIC (Table 7). Format: cell-based. As to conditions: Strepto Haemo supplement. Here is the method: as §1, §2, §3
Experiment [14] relates to Yersinia enterocolitica ATCC9610. The experiment can be described thus: Antibacterial spectrum MIC (Table 7). Format: cell-based. Here is the method:
as §1, §2, §3

The test system of experiment [15] is Bacillus cereus ATCC14579. The experiment can be described thus: Antibacterial spectrum MIC (Table 7). Format: cell-based. On the procedure: as §1, §2, §3
A further experiment deals with Neisseria meningitidis. In words: Antibacterial spectrum MIC (Table 7). Format: cell-based. On the procedure: as §1, §2, §3
Experiment [16] concerns Staphylococcus aureus NCTC8325. The experiment can be described thus: Antibacterial spectrum MIC (Table 7). The class given is cell-based. Here is the method:
as §1, §2, §3

Experiment [17] deals with Escherichia coli ATCC25922. In words: Antibacterial spectrum MIC (Table 7). Format: cell-based. On the procedure:
as §1, §2, §3

Experiment [18] deals with Stenotrophomonas maltophilia ATCC13637. The experiment can be described thus: Antibacterial spectrum MIC (Table 7). The class given is cell-based. On the procedure: as §1, §2, §3
The subject of experiment [19] is MSSA clinical isolate No. 2. In words: MIC, broth microdilution (Example 2, Table 6). The class given is cell-based, Staphylococcus aureus. A general note: In broth dilution the organism is exposed to a series of concentrations in liquid medium.
Experiment [20] concerns MRSA clinical isolate No. 8. The experiment can be described thus: MIC, broth microdilution (Example 2, Table 6). Format: cell-based, Staphylococcus aureus.
The subject of experiment [21] is methicillin-resistant Staphylococcus aureus (MRSA) ATCC43300. The experiment can be described thus: MIC, broth microdilution (Example 1). As to conditions: MRSA ATCC43300; MH-broth, 37° C., 18 hours. Format: cell-based. Here is the method: as §1, §2
As Comparative Example 1, the same procedures as in Example 1 were performed, except that unsubstituted EGCG was used as an antibacterial agent instead of the EGCG derivatives of Example 1. Furthermore, as a control, the same procedures as in Example 1 were performed, except that sterile distilled water, 100% DMSO, or 50% DMSO was used instead of the antibacterial agent solutions containing the EGCG derivatives.

EGCG-dioctanoate [EGCG-C8×2]: the MIC in the experiment on MSSA ATCC12600 was 8 µg/mL; in [1] it was 16 µg/mL; in experiment [2], 64 µg/mL; in experiment [3], 64 µg/mL; in experiment [4], 16 µg/mL; with Moraxella catarrhalis, 32 µg/mL. Further, the MIC in [5] was 64 µg/mL; in experiment [6], 32 µg/mL; in experiment [7] it was 64 µg/mL; in experiment [8], 16 µg/mL; in experiment [9], 64 µg/mL; in experiment [10], 64 µg/mL. The MIC came to 16 µg/mL in [11]; 64 µg/mL in experiment [12]; 32 µg/mL in [13]; 32 µg/mL in experiment [14]; 16 µg/mL in [15]; 16 µg/mL against Neisseria meningitidis. Further, the MIC in experiment [16] was 16 µg/mL; in experiment [17] it was 64 µg/mL; in experiment [18], 32 µg/mL; in [19], 16 µg/mL; in experiment [20], 4 µg/mL.

Turning to EGCG-linolate [EGCG-C18DE], the MIC with MSSA ATCC12600 came out at 16 µg/mL; in experiment [1] it was 32 µg/mL; in experiment [2] it was 64 µg/mL; in [3], 64 µg/mL; in [4] it was 16 µg/mL; in the experiment on Moraxella catarrhalis it was 64 µg/mL. In addition, the MIC in [5] was 64 µg/mL; in experiment [6] it was 32 µg/mL; in experiment [7] it was 64 µg/mL; in experiment [8], 16 µg/mL; in [9], 64 µg/mL; in experiment [10], 64 µg/mL. In addition, the MIC in experiment [11] was 16 µg/mL; in experiment [12] it was over 64 µg/mL; in experiment [13], 64 µg/mL; in [14] it was 32 µg/mL; in experiment [15] it was 16 µg/mL; in the experiment with Neisseria meningitidis it was 16 µg/mL. The MIC in experiment [16] worked out at 16 µg/mL; in experiment [17], 64 µg/mL; in [18] it was 32 µg/mL; in experiment [19] it was 16 µg/mL; in experiment [20], 8 µg/mL.

For the substance EGCG-oleate [EGCG-C18E], the MIC in the experiment with MSSA ATCC12600 stood at 32 µg/mL; in [1], 32 µg/mL; in experiment [2], 64 µg/mL; in experiment [3], 64 µg/mL; in [4], 16 µg/mL; against Moraxella catarrhalis it was 32 µg/mL. Further, the MIC in [5] is 64 µg/mL; in experiment [6], 32 µg/mL; in experiment [7], over 64 µg/mL; in [8], 16 µg/mL; in [9] it was 64 µg/mL; in [10], 64 µg/mL. Besides, the MIC in experiment [11] was 16 µg/mL; in experiment [12], over 64 µg/mL; in experiment [13], 64 µg/mL; in [14], 32 µg/mL; in experiment [15], 32 µg/mL; against Neisseria meningitidis, 16 µg/mL. The MIC in [16] turned out to be 32 µg/mL; in experiment [17] it was 64 µg/mL; in [18], 32 µg/mL; in experiment [19], 32 µg/mL; in experiment [20], 8 µg/mL.

On to EGCG-palmitoleate [EGCG-C16E], for which the MIC amounted to 16 µg/mL against MSSA ATCC12600; 32 µg/mL in [1]; 64 µg/mL in experiment [2]; 64 µg/mL in experiment [3]; 16 µg/mL in experiment [4]; 64 µg/mL in the experiment with Moraxella catarrhalis. Besides, the MIC in experiment [5] stood at 64 µg/mL; in experiment [6], 16 µg/mL; in experiment [7], 64 µg/mL; in experiment [8], 16 µg/mL; in [9], 64 µg/mL; in [10] it was 64 µg/mL. Further, the MIC was 16 µg/mL in [11]; over 64 µg/mL in [12]; 64 µg/mL in experiment [13]; 32 µg/mL in experiment [14]; 16 µg/mL in experiment [15]; 16 µg/mL in the experiment on Neisseria meningitidis. Also, the MIC in [16] was 16 µg/mL; in experiment [17], 64 µg/mL; in experiment [18], 32 µg/mL; in [19] it was 16 µg/mL; in experiment [20] it was 8 µg/mL.

EGCG-stearate [EGCG-C18]: the MIC with MSSA ATCC12600 is 32 µg/mL; in experiment [21], 32 µg/mL; in experiment [1] it was 32 µg/mL; in experiment [2], 64 µg/mL; in [3] it was 32 µg/mL; in [4], 16 µg/mL. Further, the MIC was 64 µg/mL against Moraxella catarrhalis; 64 µg/mL in experiment [5]; 32 µg/mL in [6]; 32 µg/mL in experiment [7]; 64 µg/mL in experiment [9]; 32 µg/mL in experiment [10]. The MIC in experiment [12] worked out at 64 µg/mL; in experiment [13], 64 µg/mL; in experiment [14], 32 µg/mL; in experiment [15] it was 32 µg/mL; with Neisseria meningitidis, 16 µg/mL; in [16], 32 µg/mL. The MIC in experiment [17] was determined as 64 µg/mL; in [18] it was 32 µg/mL; in experiment [19], 32 µg/mL; in experiment [20], 16 µg/mL. Also, the antibacterial effect entry in experiment [10] (Staphylococcus epidermids ATCC14990, comparison among EGCG derivatives) is on record as “strongest antibacterial effect”.

(Values after patent publication US9801850B2, “Antibacterial agent” (OSAKA UNIVERSITY, priority 2009, dated 2017).)
